In PubChem BioAssay AID248 (DTP/NCI, 2004):
Several values for one entry are separate records, joined by “and”; a condition that tells them apart may be missing. Equal values may be shown once. Toxic doses and inconclusive results are not listed. Rule as the data show it: active = T/C of 150% or more; inactive = T/C below 125%.

Tested on: L1210 leukemia ip in BDF1 mice, survival T/C
Assay: NCI In Vivo Anticancer Drug Screen. Data for tumor model L1210 Leukemia (intraperitoneal) in B6D2F1 (BDF1) mice
Conditions: endpoint: mean survival time, higher = longer survival
Procedure, shortened: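 Antitumor effect is assessed in tumor-bearing animals. Survival in the compound arm is compared with a vehicle-dosed control arm and expressed as their quotient.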

[1] = dose: 100.0 mg/kg/injection, schedule: Q04DX002 (ip), vehicle: saline with Tween-80
[2] = dose: 200.0 mg/kg/injection, schedule: Q04DX002 (ip), vehicle: saline with Tween-80
[3] = dose: 100.0 mg/kg/injection, schedule: Q01DX009 (ip), vehicle: saline
[4] = dose: 200.0 mg/kg/injection, schedule: Q01DX009 (ip), vehicle: saline
[5] = dose: 400.0 mg/kg/injection, schedule: Q01DX009 (ip), vehicle: saline
[6] = dose: 100.0 mg/kg/injection, schedule: Q01DX001 (ip), vehicle: carboxymethylcellulose (CMC)
[7] = dose: 100.0 mg/kg/injection, schedule: Q04DX003 (ip), vehicle: Klucel (hydroxypropylcellulose) (HPC)
[8] = dose: 100.0 mg/kg/injection, schedule: Q01DX001 (ip), vehicle: saline
[9] = dose: 400.0 mg/kg/injection, schedule: Q04DX002 (ip), vehicle: saline with Tween-80
[10] = dose: 100.0 mg/kg/injection, schedule: Q01DX009 (ip), vehicle: Klucel (hydroxypropylcellulose) (HPC)
[11] = dose: 200.0 mg/kg/injection, schedule: Q01DX009 (ip), vehicle: Klucel (hydroxypropylcellulose) (HPC)
[12] = dose: 200.0 mg/kg/injection, schedule: Q04DX003 (ip), vehicle: Klucel (hydroxypropylcellulose) (HPC)
[13] = dose: 400.0 mg/kg/injection, schedule: Q01DX009 (ip), vehicle: Klucel (hydroxypropylcellulose) (HPC)
[14] = dose: 400.0 mg/kg/injection, schedule: Q04DX003 (ip), vehicle: Klucel (hydroxypropylcellulose) (HPC)
[15] = dose: 100.0 mg/kg/injection, schedule: Q01DX001 (ip), vehicle: Klucel (hydroxypropylcellulose) (HPC)
[16] = dose: 200.0 mg/kg/injection, schedule: Q01DX001 (ip), vehicle: Klucel (hydroxypropylcellulose) (HPC)
[17] = dose: 400.0 mg/kg/injection, schedule: Q01DX001 (ip), vehicle: Klucel (hydroxypropylcellulose) (HPC)
[18] = dose: 200.0 mg/kg/injection, schedule: Q01DX001 (ip), vehicle: saline
[19] = dose: 400.0 mg/kg/injection, schedule: Q01DX001 (ip), vehicle: saline
[20] = dose: 100.0 mg/kg/injection, schedule: Q04DX003 (ip), vehicle: saline with Tween-80
[21] = dose: 200.0 mg/kg/injection, schedule: Q04DX003 (ip), vehicle: saline with Tween-80
[22] = dose: 100.0 mg/kg/injection, schedule: Q01DX009 (ip), vehicle: saline with Tween-80
[23] = dose: 200.0 mg/kg/injection, schedule: Q01DX009 (ip), vehicle: saline with Tween-80
[24] = dose: 400.0 mg/kg/injection, schedule: Q01DX009 (ip), vehicle: saline with Tween-80
[25] = dose: 100.0 mg/kg/injection, schedule: Q01DX001 (ip), vehicle: saline with Tween-80

Measured: T/C

CN(C)C(=O)Sc1ccc2ccc3ccccc3c2c1
inactive: dose: 50.0 mg/kg/injection, schedule: Q04DX002 (ip), vehicle: saline with Tween-80 108 % of control | [1] 104 % of control | [2] 108 % of control

C/C(=N/N=C(N)N)c1cccc(O)c1
inactive: dose: 15.0 mg/kg/injection, schedule: Q01DX Z (ip), vehicle: methylcellulose (MC) 107 % of control | dose: 30.0 mg/kg/injection, schedule: Q01DX Z (ip), vehicle: methylcellulose (MC) 110 % of control | dose: 30.0 mg/kg/injection, schedule: Q01DX Z (oral), vehicle: methylcellulose (MC) 89 % of control | dose: 60.0 mg/kg/injection, schedule: Q01DX Z (ip), vehicle: methylcellulose (MC) 97 % of control

COc1ccc2c(c1)N(C(=O)C(Cl)(Cl)Cl)Cc1ccccc1C2=O
inactive: [3] 87 % of control | [4] 93 % of control | [5] 96 % of control

CCC(CCl)NC(CC(C)C)CC(C)C (configuration not stated)
inactive: dose: 75.0 mg/kg/injection, schedule: Q01DX001 (ip), vehicle: saline 93 % of control and 98 % of control | dose: 150.0 mg/kg/injection, schedule: Q01DX001 (ip), vehicle: saline 96 % of control and 107 % of control

C=CS(=O)(=O)CC
inactive: dose: 25.0 mg/kg/injection, schedule: Q04DX002 (ip), vehicle: saline 119 % of control | dose: 50.0 mg/kg/injection, schedule: Q04DX002 (ip), vehicle: saline 102 % of control | dose: 100.0 mg/kg/injection, schedule: Q04DX002 (ip), vehicle: saline 102 % of control

Nc1ccccc1Sc1ccc(Br)cc1[N+](=O)[O-]
inactive: dose: 37.5 mg/kg/injection, schedule: Q04DX003 (ip), vehicle: saline 98 % of control | dose: 75.0 mg/kg/injection, schedule: Q04DX003 (ip), vehicle: saline 102 % of control | dose: 150.0 mg/kg/injection, schedule: Q04DX003 (ip), vehicle: saline 93 % of control

C=CCN(N=O)C(N)=O
inactive: dose: 12.5 mg/kg/injection, schedule: Q01DX Z (ip), vehicle: methylcellulose (MC) 106 % of control | dose: 25.0 mg/kg/injection, schedule: Q01DX Z (ip), vehicle: methylcellulose (MC) 108 % of control | dose: 50.0 mg/kg/injection, schedule: Q01DX Z (ip), vehicle: methylcellulose (MC) 117 % of control

O=S(=O)(F)c1ccccc1S(=O)(=O)Cl
inactive: dose: 25.0 mg/kg/injection, schedule: Q04DX003 (ip), vehicle: Klucel (hydroxypropylcellulose) (HPC) 97 % of control | dose: 50.0 mg/kg/injection, schedule: Q04DX003 (ip), vehicle: Klucel (hydroxypropylcellulose) (HPC) 92 % of control | [6] 95 % of control | [7] 92 % of control

OC(CN1CCCC1)c1cc2cc(Br)ccc2s1 (configuration not stated)
inactive: [8] 107 % of control

Cc1cc(OC(=O)c2ccccc2)cc(C)c1OC(=O)c1ccccc1
inactive: [1] 96 % of control | [2] 100 % of control | [9] 96 % of control

Cc1ccc(NCc2cccc3ccccc23)c(C)c1
inactive: [3] 96 % of control | dose: 100.0 mg/kg/injection, schedule: Q04DX003 (ip), vehicle: saline 104 % of control | [4] 97 % of control | dose: 200.0 mg/kg/injection, schedule: Q04DX003 (ip), vehicle: saline 102 % of control | [5] 94 % of control | dose: 400.0 mg/kg/injection, schedule: Q04DX003 (ip), vehicle: saline 96 % of control

COc1ccc(C=O)c(O)c1
inactive: [10] 92 % of control | [7] 97 % of control | [11] 103 % of control | [12] 101 % of control | [13] 95 % of control | [14] 105 % of control

CC(=O)NC(CSC(c1ccccc1)(c1ccccc1)c1ccccc1)C(=O)O (configuration not stated)
inactive: dose: 25.0 mg/kg/injection, schedule: Q01DX009 (ip), vehicle: saline 102 % of control | dose: 50.0 mg/kg/injection, schedule: Q01DX009 (ip), vehicle: saline 96 % of control

Cl[C](Cl)([Pb]([c]1ccccc1)([c]1ccccc1)[c]1ccccc1)[Pb]([c]1ccccc1)([c]1ccccc1)[c]1ccccc1
inactive: [1] 98 % of control | [2] 94 % of control | [9] 90 % of control

Cc1ccc(S(=O)(=O)N(C)c2ccc3cc(C(=O)O)ccc3c2)cc1
inactive: [10] 94 % of control | [7] 102 % of control | [11] 95 % of control | [12] 106 % of control | [13] 94 % of control | [14] 90 % of control

CSc1ncc(COC(C)=O)c(N)n1
inactive: [15] 97 % of control | [10] 102 % of control | [16] 99 % of control | [11] 96 % of control | [17] 92 % of control | [13] 104 % of control

O=[N+]([O-])c1ccc(-c2ccccc2Cl)c([N+](=O)[O-])c1
inactive: [6] 91 % of control | dose: 200.0 mg/kg/injection, schedule: Q01DX001 (ip), vehicle: carboxymethylcellulose (CMC) 91 % of control | dose: 400.0 mg/kg/injection, schedule: Q01DX001 (ip), vehicle: carboxymethylcellulose (CMC) 97 % of control

Cc1nc2ccc(N=Cc3ccc(N(CCCl)CCCl)cc3C)cc2[nH]1
inactive: [7] 104 % of control | [12] 102 % of control | [14] 101 % of control

CCN(C(C)=O)c1ccc([N+](=O)[O-])cc1
inactive: [8] 105 % of control | [18] 96 % of control | [19] 105 % of control

CC(C)/C(=C\c1ccccc1)C(=O)c1ccccc1
inactive: [20] 104 % of control | [21] 110 % of control

COc1c(NC(=O)c2ccc(Cl)c(Cl)c2)cccc1[N+](=O)[O-]
inactive: [22] 89 % of control | [23] 89 % of control | [24] 89 % of control

Clc1ccc(C2=Nc3c(Cl)ncnc3SC2)cc1
inactive: [25] 106 % of control | [22] 94 % of control | dose: 200.0 mg/kg/injection, schedule: Q01DX001 (ip), vehicle: saline with Tween-80 101 % of control | [23] 99 % of control | dose: 400.0 mg/kg/injection, schedule: Q01DX001 (ip), vehicle: saline with Tween-80 98 % of control | [24] 94 % of control

CCCCC(=O)N/N=C/C=C/c1ccccc1[N+](=O)[O-]
inactive: [8] 97 % of control | [18] 105 % of control | [19] 105 % of control

CC(=O)N1CCCC2CCc3c([nH]c4ccccc34)C21 (configuration not stated)
inactive: dose: 75.0 mg/kg/injection, schedule: Q01DX001 (ip), vehicle: other 110 % of control | dose: 150.0 mg/kg/injection, schedule: Q01DX001 (ip), vehicle: other 119 % of control | dose: 300.0 mg/kg/injection, schedule: Q01DX001 (ip), vehicle: other 110 % of control

CC(=O)NC1CCC(C(F)(F)F)CC1 (configuration not stated)
inactive: [15] 93 % of control and 96 % of control | [16] 95 % of control and 98 % of control | [17] 106 % of control and 98 % of control

CCOC(=O)NOS(=O)(=O)c1ccc([N+](=O)[O-])cc1
inactive: [20] 100 % of control | [21] 96 % of control | dose: 400.0 mg/kg/injection, schedule: Q04DX003 (ip), vehicle: saline with Tween-80 98 % of control

Nc1cnccc1NCCN1CCN(c2ccccc2)CC1
inactive: [8] 98 % of control

O=[N+]([O-])c1cnc(C2=C(O)c3ccccc3CC2)s1
inactive: [25] 97 % of control

CCCC(C)(O)C#CC(C)(O)CCC (configuration not stated)
inactive: dose: 50.0 mg/kg/injection, schedule: Q01DX009 (ip), vehicle: saline with Tween-80 97 % of control | [22] 95 % of control | [20] 100 % of control | [23] 97 % of control | [21] 95 % of control
